Results published in ChEMBL document CHEMBL1129190, “Solid-phase parallel synthesis applied to lead optimization: Discovery of potent analogues of the GPIIb/IIIa antagonist RWJ-50042” (Bioorg Med Chem Lett, 1996).

target: Integrin alpha-IIb/beta-3 (Homo sapiens, UniProt P05106+P08514); experiment: In vitro inhibition of biotinylated fibrinogen binding to immobilized integrin alpha IIb beta3; format: protein-complex assay
Sequence (P05106 27-788 limits assumed): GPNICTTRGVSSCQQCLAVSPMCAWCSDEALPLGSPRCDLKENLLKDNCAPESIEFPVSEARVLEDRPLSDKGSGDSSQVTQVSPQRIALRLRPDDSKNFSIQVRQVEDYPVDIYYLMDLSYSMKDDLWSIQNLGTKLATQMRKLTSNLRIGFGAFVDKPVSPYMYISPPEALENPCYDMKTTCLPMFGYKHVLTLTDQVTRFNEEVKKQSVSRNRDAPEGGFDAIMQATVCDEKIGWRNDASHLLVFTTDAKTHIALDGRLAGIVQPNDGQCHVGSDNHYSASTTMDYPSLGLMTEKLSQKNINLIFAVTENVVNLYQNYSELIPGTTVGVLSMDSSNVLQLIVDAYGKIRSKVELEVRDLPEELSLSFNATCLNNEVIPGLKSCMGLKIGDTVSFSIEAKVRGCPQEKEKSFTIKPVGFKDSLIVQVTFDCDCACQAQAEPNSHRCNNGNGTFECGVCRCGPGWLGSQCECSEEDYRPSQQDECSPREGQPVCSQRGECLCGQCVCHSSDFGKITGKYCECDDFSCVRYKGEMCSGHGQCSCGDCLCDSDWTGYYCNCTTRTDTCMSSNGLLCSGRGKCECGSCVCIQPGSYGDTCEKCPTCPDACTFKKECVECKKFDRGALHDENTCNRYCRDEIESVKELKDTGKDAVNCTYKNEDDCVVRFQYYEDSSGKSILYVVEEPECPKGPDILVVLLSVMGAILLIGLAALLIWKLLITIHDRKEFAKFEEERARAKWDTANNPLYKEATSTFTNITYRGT
Sequence (P08514 32-887 limits assumed): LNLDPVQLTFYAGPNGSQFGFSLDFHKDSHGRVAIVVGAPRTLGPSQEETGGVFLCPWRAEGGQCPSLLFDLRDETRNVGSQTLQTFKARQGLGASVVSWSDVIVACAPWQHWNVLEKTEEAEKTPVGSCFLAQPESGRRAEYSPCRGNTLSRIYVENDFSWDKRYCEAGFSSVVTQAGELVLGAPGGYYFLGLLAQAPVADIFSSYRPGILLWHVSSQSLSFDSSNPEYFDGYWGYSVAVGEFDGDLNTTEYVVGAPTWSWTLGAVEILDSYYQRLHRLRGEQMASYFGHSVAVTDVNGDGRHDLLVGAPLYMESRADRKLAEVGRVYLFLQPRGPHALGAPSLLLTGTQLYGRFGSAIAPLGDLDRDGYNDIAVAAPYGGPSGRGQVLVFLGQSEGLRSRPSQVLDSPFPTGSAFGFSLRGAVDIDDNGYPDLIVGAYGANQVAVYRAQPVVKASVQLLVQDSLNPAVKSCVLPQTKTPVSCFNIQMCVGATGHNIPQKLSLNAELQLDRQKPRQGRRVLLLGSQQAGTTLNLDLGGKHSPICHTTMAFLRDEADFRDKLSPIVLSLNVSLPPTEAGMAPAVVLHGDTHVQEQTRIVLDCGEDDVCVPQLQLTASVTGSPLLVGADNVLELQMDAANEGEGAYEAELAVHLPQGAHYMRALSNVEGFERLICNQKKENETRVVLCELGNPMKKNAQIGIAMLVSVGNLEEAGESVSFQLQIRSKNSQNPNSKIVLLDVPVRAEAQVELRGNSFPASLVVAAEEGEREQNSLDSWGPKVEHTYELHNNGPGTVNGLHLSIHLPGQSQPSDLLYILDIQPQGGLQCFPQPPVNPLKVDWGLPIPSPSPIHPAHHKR
Sequence (P08514 891-1039 limits assumed): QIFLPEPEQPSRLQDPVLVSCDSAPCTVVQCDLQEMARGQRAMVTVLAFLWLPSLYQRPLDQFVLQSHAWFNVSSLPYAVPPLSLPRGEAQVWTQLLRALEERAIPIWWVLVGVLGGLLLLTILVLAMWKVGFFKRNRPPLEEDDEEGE

Row | IC50 [nM] | SMILES
1 | 3 | COC(=O)C(CC(=O)O)NC(=O)C1CCCN(C(=O)CCC2CCNCC2)C1 (centres undefined)
2 | 3 | O=C(O)C[C@@H](C#Cc1ccccc1)NC(=O)[C@@H]1CCCN(C(=O)CCC2CCNCC2)C1
3 | > 100 | CC(CNC(=O)C1CCCN(C(=O)CCC2CCNCC2)C1)C(=O)O (centres undefined)
4 | 20 | O=C(O)CCNC(=O)C1CCCN(C(=O)NCC2CCNCC2)C1 (centres undefined)
5 | 5 | O=C(O)C(O)CNC(=O)C1CCCN(C(=O)CCC2CCNCC2)C1 (centres undefined)
6 | 0.1 | O=C(O)C[C@H](NC(=O)[C@@H]1CCCN(C(=O)CCC2CCNCC2)C1)c1cccs1
7 | 20 | O=C(O)CCNC(=O)C1CCCN(C(=O)OCC2CCNCC2)C1 (centres undefined)
8 | 0.1 | O=C(O)C[C@H](NC(=O)[C@@H]1CCCN(C(=O)CCC2CCNCC2)C1)c1cnc2ccccc2c1
9 | 200 | O=C(NCCS(=O)(=O)O)C1CCCN(C(=O)CCC2CCNCC2)C1 (centres undefined)
10 | 4 | O=C(O)CCNC(=O)[C@H]1CCCN(C(=O)CCC2CCNCC2)C1
11 | 21 | CC(C)(C)C#C[C@H](CC(=O)O)NC(=O)[C@@H]1CCCN(C(=O)CCC2CCNCC2)C1
12 | 3 | CC(CC(=O)O)NC(=O)C1CCCN(C(=O)CCC2CCNCC2)C1 (centres undefined)
13 | 6 | O=C(O)CCNC(=O)C1CCCN(C(=O)CCC2CCNCC2)C1 (centres undefined)
14 | > 100 | O=C(O)CCNC(=O)C1CCN(C(=O)CCC2CCNCC2)CC1
15 | 20 | O=C(O)CCNC(=O)C1CCCN(S(=O)(=O)CCC2CCNCC2)C1 (centres undefined)
16 | 2 | O=C(O)CCNC(=O)C1CCCN(C(=O)CCN2CCNCC2)C1 (centres undefined)
17 | 10 | O=C(O)CCNC(=O)C1CCCCN(C(=O)CCC2CCNCC2)C1 (centres undefined)
18 | 7 | O=C(O)CCNC(=O)C1CCN(C(=O)CCC2CCNCC2)C1 (centres undefined)
19 | 600 | O=C(NCCc1nnn[nH]1)C1CCCN(C(=O)CCC2CCNCC2)C1 (centres undefined)
20 | 200 | CN(CCC(=O)O)C(=O)C1CCCN(C(=O)CCC2CCNCC2)C1 (centres undefined)
21 | 6 | O=C(O)CCNC(=O)[C@@H]1CCCN(C(=O)CCC2CCNCC2)C1
22 | 9 | O=C(O)C1CN(C(=O)C2CCCN(C(=O)CCC3CCNCC3)C2)CCC1=O (centres undefined)
23 | > 50000 | O=C(O)C1CCCC(NC(=O)C2CCCN(C(=O)CCC3CCNCC3)C2)C1 (centres undefined)
24 | 2 | CC(C)CC(CC(=O)O)NC(=O)C1CCCN(C(=O)CCC2CCNCC2)C1 (centres undefined)
